Data as given in patent publication US20040092428A1, “Oral pharmaceuticals formulation comprising paclitaxel, derivatives and methods of administration thereof” (priority 2001, published 2004).

Molecular target: P-glycoprotein (Homo sapiens, UniProt P08183)
Procedure: P-glycoprotein inhibition has been determined with an in vitro assay. […] Therefore, the initial pool of compounds screened included excipients that were acceptable for oral or IV use and included PEG in the chemical structure. Compounds were first screened for toxicity in the NIH3T3 cell line and then tested for P-gp inhibition with paclitaxel using the protocol outlined below:
Day 0: Seed cells and incubate.
Day 1: Add potential P-gp inhibitor at fixed concentration and paclitaxel at various concentrations and incubate for 2 days.
Day 3: Add MTT and extraction/lysis buffer.
Day 4: Read absorbance to measure cell growth. Calculate IC50 to determine amount of paclitaxel required for cell death
After calculations of IC50 values, relative rank order of the compounds were determined.

Chain of P-glycoprotein (P08183 whole entry): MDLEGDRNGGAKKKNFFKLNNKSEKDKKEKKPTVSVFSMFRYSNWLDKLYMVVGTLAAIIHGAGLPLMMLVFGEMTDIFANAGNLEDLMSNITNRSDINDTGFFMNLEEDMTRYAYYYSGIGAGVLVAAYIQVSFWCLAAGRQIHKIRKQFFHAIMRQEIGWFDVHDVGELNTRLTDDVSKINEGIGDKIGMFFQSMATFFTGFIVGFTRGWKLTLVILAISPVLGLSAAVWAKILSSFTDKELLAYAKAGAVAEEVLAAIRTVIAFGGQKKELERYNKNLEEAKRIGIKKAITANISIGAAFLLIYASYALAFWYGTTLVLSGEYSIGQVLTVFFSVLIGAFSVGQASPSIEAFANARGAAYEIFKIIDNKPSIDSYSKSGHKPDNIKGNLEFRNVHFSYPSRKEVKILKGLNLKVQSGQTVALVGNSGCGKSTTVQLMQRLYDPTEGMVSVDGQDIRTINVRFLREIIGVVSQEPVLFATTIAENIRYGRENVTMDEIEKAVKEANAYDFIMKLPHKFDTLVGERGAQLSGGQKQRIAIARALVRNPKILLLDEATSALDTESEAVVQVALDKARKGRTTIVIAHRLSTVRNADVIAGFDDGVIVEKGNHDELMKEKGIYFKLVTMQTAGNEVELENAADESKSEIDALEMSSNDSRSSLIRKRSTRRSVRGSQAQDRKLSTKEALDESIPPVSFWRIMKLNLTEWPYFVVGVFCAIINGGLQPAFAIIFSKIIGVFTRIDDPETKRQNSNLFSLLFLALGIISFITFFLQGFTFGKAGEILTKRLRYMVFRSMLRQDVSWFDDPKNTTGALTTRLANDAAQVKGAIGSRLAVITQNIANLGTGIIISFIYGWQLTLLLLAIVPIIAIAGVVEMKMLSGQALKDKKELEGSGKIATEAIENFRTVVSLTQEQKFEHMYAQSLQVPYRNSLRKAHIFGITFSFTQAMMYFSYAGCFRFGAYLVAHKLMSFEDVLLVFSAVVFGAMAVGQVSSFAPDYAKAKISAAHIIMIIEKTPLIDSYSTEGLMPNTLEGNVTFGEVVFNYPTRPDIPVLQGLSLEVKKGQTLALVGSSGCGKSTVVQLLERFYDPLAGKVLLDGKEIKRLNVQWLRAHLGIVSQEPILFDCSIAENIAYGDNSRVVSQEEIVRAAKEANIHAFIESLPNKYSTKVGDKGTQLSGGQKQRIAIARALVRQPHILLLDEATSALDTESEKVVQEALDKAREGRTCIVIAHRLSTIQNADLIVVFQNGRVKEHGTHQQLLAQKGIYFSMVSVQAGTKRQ

Substance	P-gp inhibition measured by an IC50 ratio
PEG-100 stearate	> 1.0
polysorbate 80	> 1.0
